Values of other authors, collected in US9434994B2, “Methods for prediction of clinical outcome to epidermal growth factor receptor inhibitors by non-small cell lung cancer patients” (The Regents of the University of Colorado, a body corporate, priority 2004, dated 2016).

Experiments:
advanced NSCLC patients = conditions: cited from earlier work
[1] = system: chemotherapy resistant NSCLC patients; conditions: single agent; cited from earlier work
[2] = unselected gefitinib treated NSCLC patients

SMILES: COc1cc2ncnc(Nc3ccc(F)c(Cl)c3)c2cc1OCCCN1CCOCC1 [gefitinib]
- stable disease rates (advanced NSCLC patients; NSCLC patients treated with gefitinib): about 30%
- disease stabilization and symptomatic improvement (advanced NSCLC patients; advanced disease progressing after standard therapies): about 40%
- Objective Response (advanced NSCLC patients; [2]): up to 18%
- symptomatic improvement (advanced NSCLC patients; [2]): 40%
- response rates [1]: about 10%
